Reference: patent US20170333391A1, “METHOD FOR DELAYING THE ONSET OF PULMONARY FIBROSIS OR TREATING PULMONARY FIBROSIS” (EVERFRONT BIOTECH INC., priority 2016, published 2017)

Key:
[1] = test system: Sox2 protein; experiment: Sox2 protein expression in transfected NHLF (pcDNA3.1 empty vector or pcDNA3.1-SOX2), western blotting (2-3); assay type: cell-based, human; settings: TGF-β1 5 ng/ml 12 h
Method: (§1) The pcDNA3.1 empty vector and the pcDNA3.1-SOX2 plasmid (i.e., pcDNA3.1 vector containing SOX2 gene) were respectively transfected into Normal Human lung fibroblasts (NHLF) by the Fugene HD cell transfection reagent. The cells were screened to obtain NHLFs containing the pcDNA3.1 empty vector or the pcDNA3.1-SOX2 plasmid.
(§2) NHLFs containing the pcDNA3.1 empty vector were then seeded into 6 cm culture dishes at a density of 2×10^5 cells/dish, comprising a control group and three experimental groups (4 dishes in total). The cells were cultured until the next day, and then the mediums were removed. Each group was respectively treated under the following conditions to conduct follow-up experiments: • (1) Control group I: cells were cultured in a FGM-2 medium containing 1% serum for 36 hours; • (2) Group A: cells were cultured in a FGM-2 medium containing 1% serum and TGF-β1 (5 ng/ml) for 36 hours; • (3) Group B: cells were firstly cultured in a FGM-2 medium containing 1% serum and TGF-β1 (5 ng/ml) for 12 hours, and then compound (1) was added into the medium to provide a final concentration of 15 μg/ml; thereafter, the cells were cultured for another 24 hours; and • (4) Group C: cells were firstly cultured in a FGM-2 medium containing 1% serum and TGF-β1 (5 ng/ml) for 12 hours, and then compound (1) was added into the medium to provide a final concentration of 30 μg/ml; thereafter, the cells were cultured for another 24 hours.
(§3) In another aspect, NHLFs containing the pcDNA3.1-SOX2 plasmid were seeded into the 6 cm culture dishes at a density of 2×10^5 cells/dish, comprising a control group and three experimental groups (4 dishes in total). The cells were cultured until the next day, and then the mediums were removed. Each group was respectively treated under the following conditions to conduct follow-up experiments: • (1) Control group II: cells were cultured in a FGM-2 medium containing 1% serum for 36 hours; • (2) Group D: cells were cultured in a FGM-2 medium containing 1% serum and TGF-β1 (5 ng/ml) for 36 hours; • (3) Group E: cells were firstly cultured in a FGM-2 medium containing 1% serum and TGF-β1 (5 ng/ml) for 12 hours, and then the compound (1) was added into the medium to provide a final concentration of 15 μg/ml; thereafter, the cells were cultured for another 24 hours; and • (4) Group F: cells were firstly cultured in a FGM-2 medium containing 1% serum and TGF-β1 (5 ng/ml) for 12 hours, and then the compound (1) was added into the medium to provide a final concentration of 30 μg/ml; thereafter, the cells were cultured for another 24 hours.
(§4) Thereafter, the proteins in the cells of each group were extracted, and the expressions of Sox2 protein, TGF-β protein and type I collagen in the NHLF cells of each group were measured with western blotting. […]

[2] = test system: TGF-β protein; experiment: TGF-β protein expression in transfected NHLF (pcDNA3.1 empty vector or pcDNA3.1-SOX2), western blotting (2-3); assay type: cell-based, human; settings: TGF-β1 5 ng/ml 12 h
Method: as §1, §2, §3, §4

[3] = test system: smad3 protein; experiment: smad3 protein in mouse pulmonary tissue, western blotting; assay type: in vivo, mice; settings: compared to oil group
Method: 24 C57B/L6 mice (age: four weeks) were separated into four groups (6 mice in each group). […]
The samples of mice pulmonary tissue provided by Example 7 and preserved at −20° C. were removed from storage, and then ground in liquid nitrogen. […] The expressions of TGF-β protein, smad3 protein and surfactant C in the samples of each group were measured with western blotting, wherein the actin served as an internal control.

SMILES: CCCC=C1OC(=O)c2ccccc21 [compound (1)]
- Relative expression level (fold) Sox2 protein ([1]; Group B: NHLF with pcDNA3.1 empty vector, then compound (1) 15 μg/ml 24 h, control group I = 1, TGF-β1-only group A = 1.55): 1.81 fold
- Relative expression level (fold) Sox2 protein ([1]; Group C: NHLF with pcDNA3.1 empty vector, then compound (1) 30 μg/ml 24 h, control group I = 1, TGF-β1-only group A = 1.55): 1.04 fold
- Relative expression level (fold) Sox2 protein ([1]; Group E: NHLF with pcDNA3.1-SOX2 plasmid, then compound (1) 15 μg/ml 24 h, control group II = 1, TGF-β1-only group D = 0.88): 1.03 fold
- Relative expression level (fold) Sox2 protein ([1]; Group F: NHLF with pcDNA3.1-SOX2 plasmid, then compound (1) 30 μg/ml 24 h, control group II = 1, TGF-β1-only group D = 0.88): 1.02 fold
- Relative expression level (fold) TGF-β protein ([2]; Group B: NHLF with pcDNA3.1 empty vector, then compound (1) 15 μg/ml 24 h, control group I = 1, TGF-β1-only group A = 0.84): 0.89 fold
- Relative expression level (fold) TGF-β protein ([2]; Group C: NHLF with pcDNA3.1 empty vector, then compound (1) 30 μg/ml 24 h, control group I = 1, TGF-β1-only group A = 0.84): 0.69 fold
- Relative expression level (fold) TGF-β protein ([2]; Group E: NHLF with pcDNA3.1-SOX2 plasmid, then compound (1) 15 μg/ml 24 h, control group II = 1, TGF-β1-only group D = 0.86): 0.83 fold
- Relative expression level (fold) TGF-β protein ([2]; Group F: NHLF with pcDNA3.1-SOX2 plasmid, then compound (1) 30 μg/ml 24 h, control group II = 1, TGF-β1-only group D = 0.86): 0.71 fold
- expression level of smad3 protein in pulmonary tissue ([3]; High-dose group, compound (1) 50 mg/kg orally daily 30 days): significantly lower
- expression level of smad3 protein in pulmonary tissue ([3]; Low-dose group, compound (1) 10 mg/kg orally daily 30 days): significantly lower
